Test results reported in patent US12678510B2, “Drug loaded peptide brush polymers” (priority 2020, dated 2026).
Peptide text beside a SMILES is read from it. * marks the point of attachment. X1 = O=C1C2C3C=CC(C3)C2C(=O)N1CC(=O)*

Tested on: pronase
Test: Proteolytic degradation assay with pronase (RP-HPLC, MALDI-TOF-MS)
Type: in vitro ADME
Conditions: Streptomyces griseus, pronase (isolated proteolytic enzyme) in DPBS; pronase 0.35 U/mL in DPBS, 37° C., 50 μM peptide, after 3 hours; read-out: peptide cleavage
Method: The stability of drug delivery systems serves as a basis for enhancing half-life of therapeutic cargos during the course of delivery to targeted areas. To evaluate the stability of peptide brush polymers, positively charged poly(GGSGSGK) and its single peptide analogue GGSGSGK were treated with pronase, a robust proteolytic enzyme isolated from the extracellular fluid of Streptomyces griseus. RP-HPLC and MALDI-TOF mass spectroscopy were used to quantify the cleavage of peptides (FIGS. 30-33). As expected, the peptide underwent rapid degradation in the presence of pronase, resulting in approximately 75% peptide cleavage after 3 hours.
Monomer Nor-GGSGSGK and polymer Poly(GGSGSGK) (50 μM, with respect to peptide concentration) were treated with pronase (0.35 U/mL) in DPBS at 37° C. After treatment, the enzyme was heat denatured at 65° C. for 15 min.

SMILES: NCCCC[C@H](NC(=O)CNC(=O)[C@H](CO)NC(=O)CNC(=O)[C@H](CO)NC(=O)CNC(=O)CN1C(=O)C2C3C=CC(C3)C2C1=O)C(N)=O (stereo partly shown) [GGSGSGK] (X1-GSGSGK-NH2; N-terminus assumed)
- metabolised at 3 h, 50 μM: ~75%
